Columns and labels:
expanded CD3+ T cells = assay: T cell enhancement of cytokines: IL2 measurement (HTRF) in expanded CD3+ T cells stimulated with anti-CD3/anti-CD28; type: cell-based, human; details: IL-2 measurement
Method: T cells are isolated from whole blood of healthy donors by immunomagnetic negative selection following manufacture's protocol (StemCell Technologies, human T cell isolation kit). Purity of isolated cells is assessed by flow cytometry and yields 95-98% CD3^+ T cells. For expansion of T cells, 1×10^6 cells/well are plated in serum free cell expansion media (ThermoFisher) containing 30 U of recombinant human IL2 (R&D) and stimulated with 25 ul of CD3/CD28 beads (Invitrogen) in 24 well plates for 3-4 days. T cells are then expanded in 175 cm flasks and maintained at a cell density of 1 to 2.5×10^6 cells/ml days by addition of ⅔ of fresh media every 2-3 days. After 10-14 days, cells are frozen in BamBanker freezing media (Thermo) and stored in liquid nitrogen.
For IL2 measurement, expanded CD3^+ T cells are dispensed at 100K cells/well (cultured in X-VIVO 10 Serum-free media) and are stimulated with plate-bound anti-CD3 and soluble anti-CD28 in the presence of vehicle or compound of the disclosure at various concentrations for 24 h. As outlined in the manufacturer's protocol (Cisbio), 16 μL of conditioned media is transferred to a white 384-well low volume plate. Following a 24 h incubation with the anti-IL2 antibodies, the homogenous time resolved fluorescence (HTRF) is measured.

MAP4K1 (HPK1) = MAP4K1 (HPK1) (Homo sapiens (Human), UniProt Q92918); assay: MAP4K1 (HPK1) biochemical enzymatic activity, electrophoretic mobility shift (EZReader 2), ATP at APPKM (26 μM)
Chain of MAP4K1 (HPK1) (Q92918 whole entry): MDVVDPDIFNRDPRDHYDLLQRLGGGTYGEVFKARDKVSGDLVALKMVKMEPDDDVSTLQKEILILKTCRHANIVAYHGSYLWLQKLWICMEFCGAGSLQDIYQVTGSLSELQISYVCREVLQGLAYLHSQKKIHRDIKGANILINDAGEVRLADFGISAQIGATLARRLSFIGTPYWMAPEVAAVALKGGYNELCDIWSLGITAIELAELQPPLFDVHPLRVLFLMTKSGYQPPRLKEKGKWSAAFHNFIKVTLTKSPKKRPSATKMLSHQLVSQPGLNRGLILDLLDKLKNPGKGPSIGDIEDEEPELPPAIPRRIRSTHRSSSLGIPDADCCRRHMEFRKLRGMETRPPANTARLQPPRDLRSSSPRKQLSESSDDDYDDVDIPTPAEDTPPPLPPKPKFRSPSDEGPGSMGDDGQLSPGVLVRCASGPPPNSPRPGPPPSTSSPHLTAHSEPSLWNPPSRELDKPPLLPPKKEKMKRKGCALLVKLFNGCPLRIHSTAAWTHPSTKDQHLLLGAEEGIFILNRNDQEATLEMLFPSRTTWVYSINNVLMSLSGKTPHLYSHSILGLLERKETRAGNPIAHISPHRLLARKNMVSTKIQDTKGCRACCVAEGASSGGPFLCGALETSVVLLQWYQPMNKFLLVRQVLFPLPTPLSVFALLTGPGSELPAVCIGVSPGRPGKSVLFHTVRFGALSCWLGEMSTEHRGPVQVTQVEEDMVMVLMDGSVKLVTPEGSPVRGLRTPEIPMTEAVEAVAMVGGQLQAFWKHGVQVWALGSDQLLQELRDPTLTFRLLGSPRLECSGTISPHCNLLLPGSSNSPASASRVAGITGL
Excerpt: MAP4K1 (HPK1) and relevant off-target enzymatic activity was monitored using the Perkin Elmer electrophoretic mobility shift technology platform—the EZReader 2. […] Within the linear, steady-state phase of the kinase enzymatic reaction, the mixed pool of phosphorylated (product) and non-phosphorylated (substrate) peptides was passed through the microfluidic system of the PerkinElmer EZ Reader 2, under an applied electric potential difference. The presence of the phosphate group on the product peptide provided a difference in mass and charge between that of the substrate peptide, resulting in a separation of the substrate and product pools in the sample (Perrin et al. 2010). As the product and substrate peptide mixture passes the lasers within the instrument, these pools are detected (λex=488 nm, λent=568 nm) and resolved as separate peaks. The ratio between these peaks reflects the activity of the compound at that concentration, in that well, under those conditions.
Inhibitors were dissolved in 100% DMSO at a stock concentration of 10 mM. A 100×, 10-point, 4-fold serial dilution of each inhibitor was created in 100% DMSO either manually or on a Hamilton STAR liquid handler, starting at a relevant concentration, usually 1 mM. A volume of 0.130 μL of each concentration was transferred to the relevant wells of a 384-well plate (Greiner 781 201) in duplicate using a TTPLabtech Mosquito nano-litre dispenser. Using a Multidrop Combi, the remaining constituents of the kinase reaction were added to the 130 nL of dosed compound as follows (see table below for final reaction details):
Enzyme activity assays at the ^APPKM for ATP or 1 mM ATP: In each well of a 384-well plate, 0.1-15 nM of untreated enzyme was incubated in a total of 13 μL of buffer (100 mM HEPES pH 7.5, 0.015% Brij 35, 10 mM MgCl2, 1 mM DTT) with 1.5 μM fluorescent peptid and 20-1000 μM ATP, at 25° C., for 60-180 minutes in the presence or absence of a dosed concentration series of compound (1% DMSO final concentration). The kinase reactions were stopped by the addition of 70 μl of Stop buffer (100 mM HEPES pH 7.5, 0.015% Brij 35, 35 mM EDTA and 0.2% of Coating Reagent 3 (Caliper Lifesciences)). The plates were read on a Caliper EZReader 2 as described above.

[1] = Homo sapiens, T-cell, class designation
[2] = Homo sapiens, T-cell, numeric value

EC50 (expanded CD3+ T cells; class designation)	EC50 (expanded CD3+ T cells; numeric value)	IC50 (MAP4K1 (HPK1); class designation)	IC50 (MAP4K1 (HPK1); numeric value)	EC50 (expanded CD3+ T cells; [1])	EC50 (expanded CD3+ T cells; [2])	Compound
35.1 to 45 nM	36.6 nM	0.31 to 1 nM	0.5 nM			COc1ncc(C(C)(C)N)c2cc(Nc3ccc4c(n3)[C@@H](C)COC4=O)ncc12 (single isomer, unassigned) [Compound 22]
< 35 nM	4.9 nM	< 0.3 nM	0.11 nM			COc1ncc(C(C)(C)N)c2cc(Nc3ccc4c(n3)[C@@H](C)COC4=O)ncc12 (single isomer, unassigned) [Compound 23]
< 35 nM	11.3 nM	0.31 to 1 nM	0.47 nM			COc1ncc(C(C)(C)N)c2cc(Nc3ccc4c(n3)C[C@@H](C)OC4=O)ncc12 (single isomer, unassigned) [Compound 24]
< 35 nM	3.3 nM	< 0.3 nM	0.29 nM			COc1ncc(C(C)(C)N)c2cc(Nc3ccc4c(n3)C[C@H](C)OC4=O)ncc12 (single isomer, unassigned) [Compound 25]
< 35 nM	16.2 nM	0.31 to 1 nM	0.85 nM			COc1ncc(C(C)(C)N)c2cc(Nc3ccc4c(n3)[C@@H](C)[C@@H](C)OC4=O)ncc12 (single isomer, unassigned) [Compound 39]
< 35 nM	4 nM	< 0.3 nM	0.15 nM			COc1ncc(C(C)(C)N)c2cc(Nc3ccc4c(n3)[C@H](C)[C@H](C)OC4=O)ncc12 (single isomer, unassigned) [Compound 40]
< 35 nM	22.7 nM	0.31 to 1 nM	0.57 nM			CCOc1ncc(C(C)(C)N)c2cc(Nc3ccc4c(n3)C[C@H](C)OC4=O)ncc12 (single isomer, unassigned) [Compound 41]
< 35 nM	13.6 nM	0.31 to 1 nM	0.86 nM			CCOc1ncc(C(C)(C)N)c2cc(Nc3ccc4c(n3)C[C@@H](C)OC4=O)ncc12 (single isomer, unassigned) [Compound 42]
< 35 nM	8.3 nM	< 0.3 nM	0.23 nM			CCOc1ncc(C(C)(C)N)c2cc(Nc3ccc4c(n3)[C@@H](C)COC4=O)ncc12 (single isomer, unassigned) [Compound 43]
< 35 nM	22 nM	1.1 to 10 nM	1.2 nM			CCOc1ncc(C(C)(C)N)c2cc(Nc3ccc4c(n3)[C@H](C)COC4=O)ncc12 (single isomer, unassigned) [Compound 44]
> 55 nM	56.7 nM	1.1 to 10 nM	3.35 nM			CCOc1ncc(C(C)(C)N)c2cc(Nc3ccc4c(n3)[C@@H](C)[C@@H](C)OC4=O)ncc12 (single isomer, unassigned) [Compound 59]
< 35 nM	10.3 nM	< 0.3 nM	0.18 nM			CCOc1ncc(C(C)(C)N)c2cc(Nc3ccc4c(n3)[C@H](C)[C@H](C)OC4=O)ncc12 (single isomer, unassigned) [Compound 60]
< 35 nM	3.5 nM	< 0.3 nM	0.15 nM			CC[C@@](C)(N)c1cnc(OC)c2cnc(Nc3ccc4c(n3)CC(C)(C)OC4=O)cc12 (single isomer, unassigned) [Compound 61]
			0.09 nM	< 35 nM	7.3 nM	C[C@@H]1OC(=O)c2ccc(Nc3cc4c([C@](C)(N)C5CC5)cnc(OC5CC5)c4cn3)nc2[C@H]1C (single isomer, unassigned) [Compound 75]
			0.12 nM	< 35 nM	6.5 nM	C[C@@H]1c2nc(Nc3cc4c([C@](C)(N)C5CC5)ncc(OC5CC5)c4cn3)ccc2C(=O)OC1(C)C (single isomer, unassigned) [Compound 76]
			0.61 nM	35.1 to 45 nM	41.3 nM	C[C@](N)(c1cnc(OC2CC2)c2cnc(Nc3ccc4c(n3)CCNC4=O)cc12)C1CC1 (single isomer, unassigned) [Compound 106]
		0.31 to 1 nM	0.4 nM			C[C@@H]1OC(=O)c2ccc(Nc3cc4c(C(C)(C)N)cnc(OC5(C)CC5)c4cn3)nc2C1(C)C [Compound 186]
		< 0.3 nM	0.06 nM			CC[C@](C)(N)c1cnc(OC2CC2)c2cnc(Nc3ccc4c(n3)C3(CC3)[C@H](C)OC4=O)cc12 [Compound 187]
		< 0.3 nM	0.19 nM			COC[C@@](C)(N)c1cnc(OC2CC2)c2cnc(Nc3ccc4c(n3)[C@H](C)[C@H](C)OC4=O)cc12 [Compound 190]
		0.31 to 1 nM	0.53 nM			CC[C@@H](N)c1cnc(OC2(C)CC2)c2cnc(Nc3ccc4c(n3)[C@@H](C)C(C)(C)OC4=O)cc12 [Compound 191]
		< 0.3 nM	0.27 nM			CC(C)(N)c1cnc(OC2CC2)c2cnc(Nc3ccc4c(n3)C3(CC3)C(C)(C)OC4=O)cc12 [Compound 195]
		0.31 to 1 nM	0.34 nM			C[C@@H]1OC(=O)c2ccc(Nc3cc4c(C(C)(C)N)cnc(OC5(C)COC5)c4cn3)nc2[C@H]1C [Compound 197]
		< 0.3 nM	0.27 nM			CC1(Oc2ncc(C(C)(C)N)c3cc(Nc4cnc5c(c4)C(=O)C(C)(C)OC5=O)ncc23)COC1 [Compound 198]
		0.31 to 1 nM	0.36 nM			CC1(Oc2ncc(C(C)(C)N)c3cc(Nc4ccc5c(n4)C4(CC4)C(C)(C)OC5=O)ncc23)CC1 [Compound 199]
		0.31 to 1 nM	0.48 nM			COC[C@@](C)(N)c1cnc(OC2CC2)c2cnc(Nc3ccc4c(n3)CC(C)(C)OC4=O)cc12 [Compound 200]
		< 0.3 nM	0.14 nM			COC[C@@](C)(N)c1cnc(OC)c2cnc(Nc3ccc4c(n3)[C@@H](C)C(C)(C)OC4=O)cc12 [Compound 201]
		0.31 to 1 nM	0.62 nM			CC[C@@H](N)c1cnc(C)c2cnc(Nc3ccc4c(n3)[C@@H](C)[C@H](C)OC4=O)cc12 [Compound 202]
		0.31 to 1 nM	0.5 nM			CC[C@@H](N)c1cnc(OC)c2cnc(Nc3ccc4c(n3)[C@@H](C)[C@H](C)OC4=O)cc12 [Compound 203]
		< 0.3 nM	0.19 nM			COC[C@@](C)(N)c1cnc(C)c2cnc(Nc3ccc4c(n3)[C@@H](C)C(C)(C)OC4=O)cc12 [Compound 206]
		0.31 to 1 nM				CC[C@@H](N)c1ccc(Cl)c2cnc(Nc3ccc4c(n3)[C@@H](C)C(C)(C)OC4=O)cc12 [Compound 209]
